Results as given in PubChem BioAssay AID2305 (GlaxoSmithKline (GSK), 2010).

What follows are compounds tested on P. falciparum 3D7 growth, pLDH absorbance (assay: P. falciparum 3D7 growth inhibition, dose response, strain 3D7 (AID 2305)).
Compound `CC(C)(C)n1nnnc1C(c1cccnc1)N(Cc1ccccc1)Cc1ccc(Cl)cc1` (configuration not stated) has an IC50 of 740 nM.
Compound `CCNc1cc(C(=O)N[C@@H](Cc2cc(F)cc(F)c2)[C@H](O)CNCc2cccc(C(F)(F)F)c2)cc(N2CCCCS2(=O)=O)c1` has an IC50 of 610 nM.
For `Cc1ccc(S(=O)(=O)N(C)c2ccccc2C(=O)Nc2ccccc2Oc2ccccc2)cc1`, the IC50 was 920 nM.
For `Cc1cc(Nc2ncc(Cl)c(Nc3ccccc3C(N)=O)n2)n[nH]1`, the IC50 was 810 nM.
`CNS(=O)(=O)c1ccc(NC(=O)c2cc(-c3cccnc3)nc3ccc(Br)cc23)cc1` gave an IC50 of 910 nM.
`COc1cc(F)c2ncc(Cl)c([C@H](O)CN3CCC(NCc4ccc5c(n4)NC(=O)CO5)CC3)c2c1` showed an IC50 of 160 nM.
Work on `Cc1cccc(CC(N)=NCCCCCCN=C(N)Cc2cccc(C)c2)c1` yielded an IC50 of 170 nM.
`CC[C@H]1CN2CC[C@@H]1C[C@H]2[C@H](O)c1cc(N2CCC(c3ccccc3)CC2)nc2ccc(OC)cc12` showed an IC50 of 350 nM.
Compound `Cc1nc(NCCc2cnc[nH]2)cc(NCc2ccccc2)n1` has an IC50 of 830 nM.
`CN(c1cc(NC(=O)c2ccc(F)cc2)ccn1)C1CCN(Cc2cccc(C#N)c2)CC1` was tested, and the IC50 was 830 nM.
Work on `CN1CCN(CCCN(Cc2cccc(-c3ccc(CNCCc4ccccc4)cc3)c2)C(=O)c2cccs2)CC1` yielded an IC50 of 720 nM.
`O=C(Cc1cnc[nH]1)Nc1cccc(-c2ccc(-c3nc4ccc(C(F)(F)F)cc4[nH]3)s2)c1` gave an IC50 of 770 nM.
Compound `COc1ccccc1C1CCN(C2CCC(NC(=O)/C=C/c3cc(F)cc(C(F)(F)F)c3)CC2)CC1` (configuration not stated) has an IC50 of 900 nM.
Compound `CC(C)(C)OC(=O)Nc1cccc(-c2csc(N=C(N)N)n2)c1` has an IC50 of 840 nM.
Work on `CC(C)CNCc1ccc(-c2ccc(CN(C(=O)NC3CCCCC3)C3CCN(Cc4ccccc4)CC3)cc2)cc1` yielded an IC50 of 780 nM.
In the case of `Cc1ccc(NC(=O)Nc2ccccc2)cc1-c1ccc(C(=O)Nc2ccncc2)cc1`, the IC50 is reported as 240 nM.
With `O=C(NCCCCN1CCC(c2c[nH]c3ccc(-c4ccccc4)cc23)CC1)c1ccc(-c2ccccc2)cc1` the IC50 was 990 nM.
`C[C@@H](NC(=O)c1nn(-c2ccc(Cl)cc2)c(=O)c2ccccc12)C(C)(C)C` showed an IC50 of 1120 nM.
`COc1ccccc1N1CCN(CCCCN(C(=O)Nc2cccc(Cl)c2)C(=O)Nc2cccc(Cl)c2)CC1` gave an IC50 of 710 nM.
`COc1cc2nc(N3CCC(C(N)=O)CC3)nc(NCc3ccccc3)c2cc1OC` showed an IC50 of 890 nM.
For `Cc1[nH]c2ccc(-c3ccc(OC(F)(F)F)cc3)cc2c(=O)c1C#N`, the IC50 was 20 nM.
Compound `CCC(CC)N1CCN(CC(=O)Nc2ccc([N+](=O)[O-])cc2C(=O)Nc2cccc(OC)c2)CC1` has an IC50 of 870 nM.
With `CN(C(=O)Nc1ccc(F)cc1)C1CCN(CCCCCNC(=O)/C=C/c2ccc(Cl)c(Cl)c2)CC1` the IC50 was 890 nM.
Work on `COc1ccc(CC(=O)NC(CCCN2CCC3(CC2)OCc2ccccc23)c2ccc(Cl)c(Cl)c2)cc1` (configuration not stated) yielded an IC50 of 1130 nM.
With `CN1CCC(N2CCN(c3ccc4c(=O)nc(CCc5cccc(F)c5F)n(CC(=O)N(C)Cc5ccc(-c6ccc(C(F)(F)F)cc6)cc5)c4n3)CC2)CC1` the IC50 was 720 nM.
`CC(C)CCN1CCC(Oc2ccc(NC(=O)c3ccco3)cc2Cl)CC1` showed an IC50 of 680 nM.
In the case of `Nn1c(=O)oc2ccc(Cl)cc2c1=O`, the IC50 is reported as 190 nM.
In the case of `COc1ccc(CCn2c(=N)c(C(=O)NCc3cccnc3)cc3c(=O)n4cccc(C)c4nc32)cc1`, the IC50 is reported as 1400 nM.
Compound `Fc1cccc(Nc2nc(NCc3ccc(OCc4ccccc4)cc3)nc(Nc3cccc(F)c3)n2)c1` has an IC50 of 1180 nM.
`O=C(NCCCCN1CCC(c2ccc3c(c2OCC2CC2)CCCC3)CC1)c1ccc(NC(=O)c2ccc(Cl)cc2)cc1` showed an IC50 of 680 nM.
For `CCCCOc1ccc(N2C(N)=NC(N)=NC2(C)C)cc1`, the IC50 was 210 nM.
`OCCc1ccc(Nc2nccc(-c3nnc4ccccn34)n2)cc1` was tested, and the IC50 was 900 nM.
Work on `NC(N)=NN=Cc1c2ccccc2c(Cl)c2c(Cl)cccc12` yielded an IC50 of 880 nM.
Work on `CC(C)c1ccc(NC(=O)NC2CCN(CCCCCN(C)C(=O)/C=C/c3ccc(Cl)c(Cl)c3)C2)cc1` (configuration not stated) yielded an IC50 of 830 nM.
`CN(CCCc1c[nH]c2ccccc12)CCC1CCC(NC(=O)/C=C/c2ccc(Cl)c(Cl)c2)CC1` (configuration not stated) showed an IC50 of 650 nM.
`FC(F)(F)COc1ccc2ccccc2c1CCNCCCCNCCc1c(OCC(F)(F)F)ccc2ccccc12` gave an IC50 of 430 nM.
Compound `OCCN1CCN(Cc2ccc(-c3cccc(-c4nc5ccc(C(F)(F)F)cc5[nH]4)c3)cc2)CC1` has an IC50 of 640 nM.
`O=C(Nc1ccc(Cn2ncc(N3CCCNCC3)c(Cl)c2=O)cc1)Nc1ccc(SC(F)(F)F)cc1` showed an IC50 of 530 nM.
`Oc1ccc(Br)cc1C(O)CNCc1ccccc1OCc1ccccc1` (configuration not stated) gave an IC50 of 170 nM.
Compound `CCOc1cc(C)ccc1C1CCN(CCCCNC(=O)c2ccc(NC(=O)c3cc(Cl)cc(Cl)c3)cc2)CC1` has an IC50 of 360 nM.
Compound `Cc1ccc(C)c(Cn2ccc3nc(N)nc(N)c32)c1` has an IC50 of 300 nM.
For `N#CC(c1cccc(Cl)c1)c1ccc2c(C(F)(F)F)cc(C(F)(F)F)nc2n1` (configuration not stated), the IC50 was 730 nM.
Compound `c1ccc2cc3c(NCCN4CCOCC4)ccnc3cc2c1` has an IC50 of 170 nM.
In the case of `O=S(=O)(c1ccccc1)C1CC1`, the IC50 is reported as 720 nM.
For `Cc1c(CCNC(=O)CCCN2CC(C)CC(C)C2)c2ccccc2n1C` (configuration not stated), the IC50 was 1270 nM.
Work on `CCc1c(CCNCCCCCCNCCc2ccc(OC)c(OC)c2C)ccc(OC)c1OC` yielded an IC50 of 1570 nM.
With `O=C(Nc1ccc(Cl)c(Cl)c1)N1CCC(CNCc2cccc([N+](=O)[O-])c2)CC1` the IC50 was 980 nM.
In the case of `COc1cc(Nc2ncnc3cc(OC)c(OC)cc23)cc([N+](=O)[O-])c1`, the IC50 is reported as 810 nM.
With `O=C(CC1SC(N2N=C(c3cccs3)CC2c2ccccc2)=NC1=O)Nc1ccccc1F` (configuration not stated) the IC50 was 1090 nM.
With `O=S(=O)(Nc1cccc(CCN2CCC(N3CCCCC3)CC2)c1)c1ccc(-c2ccccc2)cc1` the IC50 was 1120 nM.
With `Cc1cccc2[nH]c(-c3ccc(-c4ccc(CN5CCN(c6ccncc6)CC5)cc4)cc3)nc12` the IC50 was 160 nM.
Work on `COc1ccc2nc(C)cc(NN=Cc3ccc(Cl)cc3)c2c1` yielded an IC50 of 230 nM.
In the case of `O=C(Nc1cccc(CN2CCCN(Cc3ccc(O)cc3)CC2)c1)c1ccc(-c2ccccc2)cc1`, the IC50 is reported as 340 nM.
`CC(C)c1cccc(OCC2CCN(c3ncc(C(=O)NC4CC4)cc3Cl)CC2)c1` was tested, and the IC50 was 680 nM.
Compound `Cc1cc(NC(=O)Nc2ccc(C(C)C)cc2)c2ccccc2n1` has an IC50 of 660 nM.
For `FC(F)(F)c1cccc(CCNc2nccc(NCc3ccccc3Cl)n2)c1`, the IC50 was 1170 nM.
With `CN=C(N)c1ccc(NC(=O)Nc2ccc(C(N)=NC)cc2)cc1` the IC50 was 580 nM.
`O=C(/C=C/c1ccc(Cl)c(Cl)c1)NCCCCCN1CCCN(C(=O)Nc2cccc(C(F)(F)F)c2)CC1` gave an IC50 of 870 nM.
Compound `CCN(CC)CCN(Cc1ccc(-c2ccc(C(F)(F)F)cc2)cc1)C(=O)Cn1c(CCc2ccc(F)c(F)c2)cc(=O)c2ccccc21` has an IC50 of 890 nM.
Compound `O=C(/C=C/c1cc(C(F)(F)F)ccc1F)NC1CCC(CN2CCC(c3c[nH]c4ccccc34)CC2)CC1` (configuration not stated) has an IC50 of 820 nM.
Work on `O=S(=O)(NCCN1CCCC1)c1cccc(-c2cccc(CNCc3ccccc3)c2)c1` yielded an IC50 of 810 nM.
In the case of `c1ccc2c(NCCCCCCNc3c4ccccc4nc4ccccc34)c3ccccc3nc2c1`, the IC50 is reported as 750 nM.
`CS(=O)(=O)CCOCc1ccc(-c2ccc3ncnc(Nc4ccc(OCc5cccc(F)c5)c(Cl)c4)c3c2)o1` was tested, and the IC50 was 800 nM.
Compound `O=C(/C=C/c1ccc(C(F)(F)F)cc1)NCCCCCN1CCCN(C(=O)Nc2ccc(Cl)c(C(F)(F)F)c2)CC1` has an IC50 of 200 nM.
With `Cc1[nH]c(C)c(-c2ccc(Oc3cc(Cl)cc(Cl)c3)cc2)c(=O)c1Cl` the IC50 was 520 nM.
Work on `COc1ccc2c(=O)c(Br)c(C)[nH]c2c1` yielded an IC50 of 190 nM.
Work on `Cc1cc(N2C(N)=NC(N)=NC2(C)C)ccc1Cl` yielded an IC50 of 20 nM.
`CC[C@H](NC(=O)c1c(CN2CCC(N3CCCCC3)CC2)c(-c2ccccc2)nc2c(Cl)c(O)ccc12)c1ccccc1` gave an IC50 of 730 nM.
In the case of `N#Cc1ccc(N2CCN(Cc3ccc(-c4ccc(-c5nc6ccc(C(F)(F)F)cc6[nH]5)cc4)cc3)CC2)nc1`, the IC50 is reported as 960 nM.
`CCCCN(Cc1cc(Cl)c(OCC)c(OC)c1)c1ccc(C(O)(C(F)(F)F)C(F)(F)F)cc1` gave an IC50 of 910 nM.
Compound `CC(C)c1ccc(NS(=O)(=O)c2cccc(C(=O)NC3CCN(CC4CCCCC4)CC3)c2)cc1` has an IC50 of 1300 nM.
`FC(F)(F)c1ccc2nc(-c3ccc(-c4cccc(CNCC5CCCO5)c4)cc3)[nH]c2c1` (configuration not stated) gave an IC50 of 250 nM.
In the case of `N#CC(c1ccc(Cl)cc1)c1ccc2c(C(F)(F)F)cc(C(F)(F)F)nc2n1` (configuration not stated), the IC50 is reported as 1010 nM.
For `CC(C)c1ccc2oc(-c3ccc(NC(=O)c4ccc([N+](=O)[O-])o4)cc3)nc2c1`, the IC50 was 340 nM.
Work on `CCCC(CNCc1cccc(I)c1)CNc1cc(=O)c2ccccc2[nH]1` (configuration not stated) yielded an IC50 of 470 nM.
`Cc1[nH]cnc1CSCCNC(=NCCCCCCCCN=C(NC#N)NCCSCc1nc[nH]c1C)NC#N` showed an IC50 of 1270 nM.
For `CN(C)CCNC(=O)c1csc(Nc2ccc(Cl)c(Cl)c2)n1`, the IC50 was 220 nM.
`CSc1nc2nc(C)c(Cc3cccc(C(F)(F)F)c3)c(C)n2n1` showed an IC50 of 190 nM.
In the case of `COc1ccc(NC(=O)N2CCN(CCCCCNC(=O)/C=C/c3ccc(C(F)(F)F)cc3)CC2)cc1Cl`, the IC50 is reported as 860 nM.
In the case of `CCCN(CCC)C(C)CCC(C)Nc1c2ccc(Cl)cc2nc2ccc(OC)cc12` (configuration not stated), the IC50 is reported as 70 nM.
Work on `COc1ccc(CCNc2nc(SCc3ccccc3Cl)nc3ccccc23)cc1OC` yielded an IC50 of 940 nM.
Work on `Cc1cccc(-c2nn(-c3ccccc3)cc2C(=O)Nc2nnc(C)o2)c1` yielded an IC50 of 1160 nM.
For `O=[N+]([O-])c1cc(C=NNc2nc3nonc3nc2Nc2ccc(F)cc2)c(Cl)cc1Cl`, the IC50 was 760 nM.
For `O=C(Nc1cccc(-c2ccc(-c3nc4ccc(C(F)(F)F)cc4[nH]3)s2)c1)c1cnc[nH]1`, the IC50 was 1110 nM.
Work on `CC(C)(C)c1cc(C(=O)N2CCN(c3ccc(C(F)(F)F)cn3)CC2)n(Cc2ccc(F)cc2)n1` yielded an IC50 of 980 nM.
For `Cc1cc(NC(=O)NCCN2CCC(NS(=O)(=O)c3ccc(C(F)(F)F)cc3)C2)c2ccccc2n1` (configuration not stated), the IC50 was 650 nM.
`CCOC(=O)NC1=NC(C)(C)N(OCCCOc2cc(Cl)c(Cl)cc2Cl)C(NC(=O)OCC)=N1` gave an IC50 of 30 nM.
`COc1ccc(C(=O)C2CCN(CCCCNC(=O)c3ccc(NC(=O)c4ccc(Cl)cc4)cc3)CC2)c(OC)c1` showed an IC50 of 770 nM.
`Clc1ccccc1/C=C/c1cncnc1Nc1ccc2nc(Cc3ccccc3)[nH]c2c1` was tested, and the IC50 was 920 nM.
With `CN1CCN(Cc2ccc(-c3cc4nccc(Nc5ccc(Oc6ccccc6)cc5)c4cc3Cl)o2)CC1` the IC50 was 980 nM.
`O=C(Nc1ccc(-c2ccc(-c3nc4ccccc4[nH]3)s2)cc1)c1ccncc1` showed an IC50 of 790 nM.
`CCN(CC)CCCNCc1ccc(-c2ccc(C(F)(F)F)cc2)cc1` was tested, and the IC50 was 990 nM.
Work on `COc1cccc(NC(=O)c2ccc(NCCCN3CC(C)CC(C)C3)c([N+](=O)[O-])c2)c1` (configuration not stated) yielded an IC50 of 720 nM.
`COc1cccc(O)c1CN1CCC2(CCCN(Cc3ccc(F)cc3)C2)C1` (configuration not stated) showed an IC50 of 870 nM.
`O=C(NCCN1CCCC1)N1CCCN(c2ncnc3cc(-c4ccc(F)cc4)sc23)CC1` showed an IC50 of 900 nM.
Work on `Cc1cccc2[nH]c(-c3cccc(-c4cccc(CNCCc5ccncc5)c4)c3)nc12` yielded an IC50 of 140 nM.
Compound `COc1ccccc1-n1c(SCC(=O)c2ccc3c(c2)CC(=O)N3C)nnc1-c1cccs1` has an IC50 of 960 nM.
